Experimental data from article PMC11044151, “Development of Half-Sandwich Ru, Os, Rh, and Ir Complexes Bearing the Pyridine-2-ylmethanimine Bidentate Ligand Derived from 7-Chloroquinazolin-4(3H)-one with Enhanced Antiproliferative Activity” (ACS Omega, 2024).
pIC50: −log10 of the molar value. Where two headings read alike, the source gives them in different places.

Legend:
A549 = experiment: Neutral red uptake antiproliferative assay, A549; conditions: for pIC50: read-out: IC50 A549, exposure time 72 h, n = 3, 95% CI given; for activity factor IC50(1)/IC50(3a–4d), A549: vs corresponding amine (R)-1 or (S)-1, 72 h
In short: (§1)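 Cells (10^4/well) are seeded, left overnight, then treated with test compounds for 70 h at 37 °C in DMEM with 10% fetal bovine serum. Neutral red uptake (1 mM, 2 h) is quantified at 540 nm after solubilisation, and IC50 is derived by five-parameter curve fitting.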

HCT116 = experiment: cells; conditions: for pIC50: read-out: IC50 HCT116, exposure time 72 h, n = 3, 95% CI given; for activity factor IC50(1)/IC50(3a–4d), HCT116: vs corresponding amine (R)-1 or (S)-1, 72 h
In short: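 Cells seeded at 10^4 per well overnight, then exposed to compounds (0.1% v/v DMSO final) for 70 h. Viability by neutral red uptake: 1 mM dye for 2 h, acid-ethanol extraction, A540. IC50 and IC90 from five-parameter logistic regression.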

Colo205 = experiment: cells; conditions: for pIC50: read-out: IC50 Colo205, exposure time 72 h, n = 3, 95% CI given; for activity factor IC50(1)/IC50(3a–4d), Colo205: vs corresponding amine (R)-1 or (S)-1, 72 h
In short: as §1

HepG2 = experiment: cells; conditions: for pIC50: read-out: IC50 HepG2, exposure time 72 h, n = 3, 95% CI given; for activity factor IC50(1)/IC50(3a–4d), HepG2: vs corresponding amine (R)-1 or (S)-1, 72 h
In short: as §1

MCF7 = experiment: cells; conditions: for pIC50: read-out: IC50 MCF7, exposure time 72 h, n = 3, 95% CI given; for activity factor IC50(1)/IC50(3a–4d), MCF7: vs corresponding amine (R)-1 or (S)-1, 72 h
In short: as §1

SW620 = experiment: Neutral red uptake antiproliferative assay, SW620; type: cell-based, human; conditions: for pIC50: exposure time 72 h, n = 3, 95% CI given; for activity factor IC50(1)/IC50(3a–4d), SW620: vs corresponding amine (R)-1 or (S)-1, 72 h
In short: as §1

SW620D = experiment: Neutral red uptake antiproliferative assay, MDR line SW620D; type: cell-based, human; conditions: for pIC50: exposure time 72 h, n = 3, ABCB1-overexpressing MDR line; for activity factor IC50(1)/IC50(3a–4d), SW620D: vs corresponding amine (R)-1 or (S)-1, 72 h
In short: (§2)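 ABC-transporter-overexpressing SW620 derivatives were used: ABCB1 in SW620D, ABCC1 in SW620M, ABCG2 in SW620C and SW620Mito. Cytotoxicity is determined by neutral red uptake as % of control.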

SW620E = experiment: Neutral red uptake antiproliferative assay, MDR line SW620E; type: cell-based, human; conditions: for pIC50: exposure time 72 h, n = 3, ABCC1- and ABCB1-overexpressing MDR line; for activity factor IC50(1)/IC50(3a–4d), SW620E: vs corresponding amine (R)-1 or (S)-1, 72 h
SW620M = experiment: Neutral red uptake antiproliferative assay, MDR line SW620M; type: cell-based, human; conditions: for pIC50: exposure time 72 h, n = 3, ABCC1-overexpressing MDR line; for activity factor IC50(1)/IC50(3a–4d), SW620M: vs corresponding amine (R)-1 or (S)-1, 72 h
In short: as §2

SW620V = experiment: Neutral red uptake antiproliferative assay, MDR line SW620V; type: cell-based, human; conditions: for pIC50: exposure time 72 h, n = 3, ABCB1-overexpressing MDR line; for activity factor IC50(1)/IC50(3a–4d), SW620V: vs corresponding amine (R)-1 or (S)-1, 72 h
KSP = biological target: T1, KSP (Homo sapiens, UniProt P52732); experiment: Kinesin ATPase inhibition (ATP hydrolysis) end-point assay; type: biochemical; conditions: for KSP residual activity: 100 nM stated for ispinesib and (R)-1, concentration not restated for the complexes
T1 construct: purchased Cytoskeleton, Inc
T1 sequence (P52732 1-368 limits assumed): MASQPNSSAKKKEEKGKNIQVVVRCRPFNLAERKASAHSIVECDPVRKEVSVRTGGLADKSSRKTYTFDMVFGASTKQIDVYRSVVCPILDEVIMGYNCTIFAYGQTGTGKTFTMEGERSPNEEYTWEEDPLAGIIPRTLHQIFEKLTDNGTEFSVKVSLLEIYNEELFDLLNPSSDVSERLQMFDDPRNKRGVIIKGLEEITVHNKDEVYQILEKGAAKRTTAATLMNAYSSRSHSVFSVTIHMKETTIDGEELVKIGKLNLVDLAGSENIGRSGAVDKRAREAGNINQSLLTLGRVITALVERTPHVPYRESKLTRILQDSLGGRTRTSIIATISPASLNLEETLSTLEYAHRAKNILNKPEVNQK
Procedure: The mechanism of the anticancer activity of ispinesib is related to the inhibition of the activity of the KSP. Thus, we studied the synthesized compounds’ ability to inhibit KSP activity using the adenosine 5′-triphosphate (ATP) hydrolysis assay.
The potential kinesin modulatory activity of tested compounds was performed using a Kinesin ATPase end-point biochem kit (Cytoskeleton, Inc.). […] The experiment was performed according to the manufacturer’s instructions. One μg of tested kinesin (KSP) was used per reaction. Phosphate release was measured at the absorbance 650 nm using an EnVision multilabel plate reader (PerkinElmer).

| SMILES | pIC50 (A549) | activity factor IC50(1)/IC50(3a–4d), A549 (A549) | pIC50 (HCT116) | activity factor IC50(1)/IC50(3a–4d), HCT116 (HCT116) | pIC50 (Colo205) | activity factor IC50(1)/IC50(3a–4d), Colo205 (Colo205) | pIC50 (HepG2) | activity factor IC50(1)/IC50(3a–4d), HepG2 (HepG2) | pIC50 (MCF7) | activity factor IC50(1)/IC50(3a–4d), MCF7 (MCF7) | pIC50 (SW620) | activity factor IC50(1)/IC50(3a–4d), SW620 (SW620) | pIC50 (SW620D) | activity factor IC50(1)/IC50(3a–4d), SW620D (SW620D) | pIC50 (SW620E) | activity factor IC50(1)/IC50(3a–4d), SW620E (SW620E) | pIC50 (SW620M) | activity factor IC50(1)/IC50(3a–4d), SW620M (SW620M) | pIC50 (SW620V) | activity factor IC50(1)/IC50(3a–4d), SW620V (SW620V) | also measured |
| --- | --- | --- | --- | --- | --- | --- | --- | --- | --- | --- | --- | --- | --- | --- | --- | --- | --- | --- | --- | --- | --- |
| CC(C)[C@@H](N=Cc1ccccn1)c1nc2cc(Cl)ccc2c(=O)n1Cc1ccccc1.Cc1ccc(C(C)C)cc1.F[P-](F)(F)(F)(F)F.[Cl-].[Ru+2] [Compound 3a, [(cym)Ru((R)-2)Cl]PF6] | 5.61 | (0.902) | 5.54 | (0.120) | 5.90 | (0.085) | 5.80 | (0.360) | 6.07 | (0.269) | 5.91 | (0.079) | 5.14 | (0.155) | 5.26 | (0.151) | 5.46 | (0.070) | 5.33 | (0.044) | KSP inhibitory activity (in words) (KSP; 100, 300 and 1000 nM): nonactive |
| CC(C)[C@@H](N=Cc1ccccn1)c1nc2cc(Cl)ccc2c(=O)n1Cc1ccccc1.Cc1ccc(C(C)C)cc1.F[P-](F)(F)(F)(F)F.[Cl-].[Os+2] [Compound 3b, [(cym)Os((R)-2)Cl]PF6] | 5.98 | (2.12) | 6.37 | (0.816) | 6.35 | (0.239) | 6.73 | (3.01) | 7.14 | (3.16) | 6.25 | (0.173) | 5.41 | (0.286) | 5.45 | (0.237) | 6.23 | (0.408) | 5.99 | (0.200) | increased cytotoxicity vs corresponding amine 1, A549 (A549): 2 fold; increased cytotoxicity vs corresponding amine 1, HepG2 (HepG2): 3 fold; increased cytotoxicity vs corresponding amine 1, MCF7 (MCF7): 3 fold; KSP residual activity (KSP): 71.8% |
| CC(C)[C@@H](N=Cc1ccccn1)c1nc2cc(Cl)ccc2c(=O)n1Cc1ccccc1.Cc1c(C)c(C)[c-](C)c1C.F[P-](F)(F)(F)(F)F.[Cl-].[Rh+3] [Compound 3c, [(Cp*)Rh((R)-2)Cl]PF6] | 5.94 | (1.90) | 6.76 | (2.00) | 6.86 | (0.775) | 6.16 | (0.821) | 6.45 | (0.647) | 6.82 | (0.632) | 5.38 | (0.268) | 6.06 | (0.949) | 5.93 | (0.204) | 6.68 | (0.981) | increased cytotoxicity vs corresponding amine 1, A549 (A549; rounded value): 2 fold; KSP residual activity (KSP): 47.5% |
| CC(C)[C@@H](N=Cc1ccccn1)c1nc2cc(Cl)ccc2c(=O)n1Cc1ccccc1.Cc1c(C)c(C)[c-](C)c1C.F[P-](F)(F)(F)(F)F.[Cl-].[Ir+3] [Compound 3d, [(Cp*)Ir((R)-2)Cl]PF6] | 5.95 | (1.96) | 6.32 | (0.727) | 6.28 | (0.204) | 6.34 | (1.25) | 6.19 | (0.354) | 6.70 | (0.485) | 6.19 | (1.74) | 5.99 | (0.819) | 6.61 | (0.976) | 6.57 | (0.771) | increased cytotoxicity vs corresponding amine 1, A549 (A549; rounded value): 2 fold; higher cytotoxicity than corresponding amine 1, SW620D (SW620D; rounded value): 1.7 fold; KSP residual activity (KSP): 64.0% |
